Patent publication US6908935B2, “Calcium receptor modulating agents” (Amgen Inc., priority 2002, dated 2005)

Molecular target: T1, human parathyroid cell Ca^2+ receptor (hPCaR) (Homo sapiens, UniProt P41180)
T1 construct: expressed in transfected cells
T1 sequence (P41180 20-1078): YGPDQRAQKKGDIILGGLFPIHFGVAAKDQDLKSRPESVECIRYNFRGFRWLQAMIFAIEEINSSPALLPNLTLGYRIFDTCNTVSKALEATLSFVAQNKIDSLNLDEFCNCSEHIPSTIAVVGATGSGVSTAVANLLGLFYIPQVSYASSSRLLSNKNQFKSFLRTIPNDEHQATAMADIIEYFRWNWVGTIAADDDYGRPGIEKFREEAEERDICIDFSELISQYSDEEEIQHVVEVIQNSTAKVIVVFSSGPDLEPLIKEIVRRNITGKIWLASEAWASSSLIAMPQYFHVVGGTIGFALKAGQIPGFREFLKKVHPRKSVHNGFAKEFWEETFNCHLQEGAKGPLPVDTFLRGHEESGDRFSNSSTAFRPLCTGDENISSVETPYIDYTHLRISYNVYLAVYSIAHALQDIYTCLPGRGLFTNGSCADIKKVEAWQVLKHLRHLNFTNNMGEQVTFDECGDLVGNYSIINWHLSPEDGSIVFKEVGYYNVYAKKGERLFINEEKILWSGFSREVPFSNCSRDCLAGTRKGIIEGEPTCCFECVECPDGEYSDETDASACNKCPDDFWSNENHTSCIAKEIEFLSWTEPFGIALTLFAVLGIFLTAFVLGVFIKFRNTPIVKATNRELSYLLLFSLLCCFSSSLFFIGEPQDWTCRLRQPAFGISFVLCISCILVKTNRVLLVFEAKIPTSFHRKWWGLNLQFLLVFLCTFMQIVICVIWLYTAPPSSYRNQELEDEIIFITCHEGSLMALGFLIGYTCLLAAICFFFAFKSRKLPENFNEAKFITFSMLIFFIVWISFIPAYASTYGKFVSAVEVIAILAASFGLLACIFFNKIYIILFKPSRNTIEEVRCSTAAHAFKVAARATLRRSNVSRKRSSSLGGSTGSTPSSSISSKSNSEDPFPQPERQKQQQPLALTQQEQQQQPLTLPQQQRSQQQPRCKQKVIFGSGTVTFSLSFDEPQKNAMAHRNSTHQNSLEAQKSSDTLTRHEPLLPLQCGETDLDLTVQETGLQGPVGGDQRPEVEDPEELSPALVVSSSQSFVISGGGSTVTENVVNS
Assay: [Ca2+]i measurement with fluo-3 in HEK 293 4.0-7 cells stably transfected with hPCaR
Type: cell-based
Conditions: fluo-3 fluorescence (485/530 nm), effect on [Ca^2+]i
Summary of the method: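 HEK 293 cells stably expressing human parathyroid Ca2+ receptor (clone 4.0-7), loaded with 2 μM fluo-3 AM for 30 min at 37 °C in parathyroid cell buffer (pH 7.45) with 1 mM CaCl2 and 0.5% BSA. After compound addition, intracellular Ca2+ followed by fluorescence at 485 nm excitation/530 nm emission.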

Row | Structure (SMILES) | EC50
1 | COc1ccc(CN[C@H](C)c2ccccc2)cc1-c1ccc2ccn(C)c2c1 [(1R)-N-((3-(1-methyl-1H-indol-6-yl)-4-(methyloxy)phenyl)methyl)-1-phenylethanamine] | ≤ 10 µM
2 | COc1ccc(CN[C@H](C)c2ccc3ccccc3c2)cc1-c1ccc2[nH]ccc2c1 [(1R)-N-((3-(1H-indol-5-yl)-4-(methyloxy)phenyl)methyl)-1-(2-naphthalenyl)ethanamine] | ≤ 10 µM
3 | COc1cccc([C@@H](C)NCc2ccc(OC)c(-c3ccc4[nH]ccc4c3)c2)c1 [(1R)-N-((3-(1H-indol-5-yl)-4-(methyloxy)phenyl)methyl)-1-(3-(methyloxy)phenyl)ethanamine] | ≤ 10 µM
4 | COc1ccc([C@@H](C)NCc2ccc(OC)c(-c3ccc4[nH]ccc4c3)c2)cc1 [(1R)-N-((3-(1H-indol-5-yl)-4-(methyloxy)phenyl)methyl)-1-(4-(methyloxy)phenyl)ethanamine] | ≤ 10 µM
5 | COc1cccc([C@@H](C)NCc2ccc(OC)c(-c3ccc4nsnc4c3)c2)c1 [(1R)-N-((3-(2,1,3-benzothiadiazol-5-yl)-4-(methyloxy)phenyl)methyl)-1-(3-(methyloxy)phenyl)ethanamine] | ≤ 10 µM
6 | COc1ccc(CN[C@H](C)c2ccccc2)cc1-c1ccc2nsnc2c1 [(1R)-N-((3-(2,1,3-benzothiadiazol-5-yl)-4-(methyloxy)phenyl)methyl)-1-phenylethanamine] | ≤ 10 µM
7 | COc1ccc(CN[C@H](C)c2cccc3ccccc23)cc1-c1ccc2nonc2c1 [(1R)-N-((3-(2,1,3-benzoxadiazol-5-yl)-4-(methyloxy)phenyl)methyl)-1-(1-naphthalenyl)ethanamine] | ≤ 10 µM
8 | COc1cccc([C@@H](C)NCc2ccc(OC)c(-c3ccc4nonc4c3)c2)c1 [(1R)-N-((3-(2,1,3-benzoxadiazol-5-yl)-4-(methyloxy)phenyl)methyl)-1-(3-(methyloxy)phenyl)ethanamine] | ≤ 10 µM
9 | COc1ccc(CN[C@H](C)c2ccccc2)cc1-c1ccc2nonc2c1 [(1R)-N-((3-(2,1,3-benzoxadiazol-5-yl)-4-(methyloxy)phenyl)methyl)-1-phenylethanamine] | ≤ 10 µM
10 | COc1ccc(CN[C@H](C)c2cccc3ccccc23)cc1-c1ccc2c(c1)OC(F)(F)O2 [(1R)-N-((3-(2,2-difluoro-1,3-benzodioxol-5-yl)-4-(methyloxy)phenyl)methyl)-1-(1-naphthalenyl)ethanamine] | ≤ 10 µM
11 | COc1cccc([C@@H](C)NCc2ccc(OC)c(-c3ccc4c(c3)OC(F)(F)O4)c2)c1 [(1R)-N-((3-(2,2-difluoro-1,3-benzodioxol-5-yl)-4-(methyloxy)phenyl)methyl)-1-(3-(methyloxy)phenyl)ethanamine] | ≤ 10 µM
12 | COc1ccc(CN[C@H](C)c2ccccc2)cc1-c1ccc2c(c1)OC(F)(F)O2 [(1R)-N-((3-(2,2-difluoro-1,3-benzodioxol-5-yl)-4-(methyloxy)phenyl)methyl)-1-phenylethanamine] | ≤ 10 µM
13 | COc1ccc(CN[C@H](C)c2cccc3ccccc23)cc1-c1ccc2c(c1)CCO2 [(1R)-N-((3-(2,3-dihydro-1-benzofuran-5-yl)-4-(methyloxy)phenyl)methyl)-1-(1-naphthalenyl)ethanamine] | ≤ 10 µM
14 | COc1cccc([C@@H](C)NCc2ccc(OC)c(-c3ccc4c(c3)CCO4)c2)c1 [(1R)-N-((3-(2,3-dihydro-1-benzofuran-5-yl)-4-(methyloxy)phenyl)methyl)-1-(3-(methyloxy)phenyl)ethanamine] | ≤ 10 µM
15 | COc1ccc(CN[C@H](C)c2ccccc2)cc1-c1ccc2c(c1)CCO2 [(1R)-N-((3-(2,3-dihydro-1-benzofuran-5-yl)-4-(methyloxy)phenyl)methyl)-1-phenylethanamine] | ≤ 10 µM
16 | CCn1nc2ccc(-c3cc(CN[C@H](C)c4ccccc4)ccc3OC)cc2n1 [(1R)-N-((3-(2-ethyl-2H-1,2,3-benzotriazol-5-yl)-4-(methyloxy)phenyl)methyl)-1-phenylethanamine] | ≤ 10 µM
17 | COc1ccc(CN[C@H](C)c2ccccc2)cc1-c1cccnc1F [(1R)-N-((3-(2-fluoro-3-pyridinyl)-4-(methyloxy)phenyl)methyl)-1-phenylethanamine] | ≤ 10 µM
18 | COc1ccc(CN[C@H](C)c2cccc3ccccc23)cc1-c1ccc2oc(C)nc2c1 [(1R)-N-((3-(2-methyl-1,3-benzoxazol-5-yl)-4-(methyloxy)phenyl)methyl)-1-(1-naphthalenyl)ethanamine] | ≤ 10 µM

Row | Structure (SMILES) | EC50
19 | COc1ccc(CN[C@H](C)c2ccccc2)cc1-c1ccc2oc(C)nc2c1 [(1R)-N-((3-(2-methyl-1,3-benzoxazol-5-yl)-4-(methyloxy)phenyl)methyl)-1-phenylethanamine] | ≤ 10 µM
20 | COc1ccc(CN[C@H](C)c2cccc3ccccc23)cc1-c1coc(C)n1 [(1R)-N-((3-(2-methyl-1,3-oxazol-4-yl)-4-(methyloxy)phenyl)methyl)-1-(1-naphthalenyl)ethanamine] | ≤ 10 µM
21 | COc1ccc(CN[C@H](C)c2ccccc2)cc1-c1coc(C)n1 [(1R)-N-((3-(2-methyl-1,3-oxazol-4-yl)-4-(methyloxy)phenyl)methyl)-1-phenylethanamine] | ≤ 10 µM
22 | COc1ccc(CN[C@H](C)c2cccc3ccccc23)cc1-c1ccc2nn(C)cc2c1 [(1R)-N-((3-(2-methyl-2H-indazol-5-yl)-4-(methyloxy)phenyl)methyl)-1-(1-naphthalenyl)ethanamine] | ≤ 10 µM
23 | COc1ccc(CN[C@H](C)c2cccc3ccccc23)cc1-c1ccoc1 [(1R)-N-((3-(3-furanyl)-4-(methyloxy)phenyl)methyl)-1-(1-naphthalenyl)ethanamine] | ≤ 10 µM
24 | COc1cccc([C@@H](C)NCc2ccc(OC)c(-c3ccoc3)c2)c1 [(1R)-N-((3-(3-furanyl)-4-(methyloxy)phenyl)methyl)-1-(3-(methyloxy)phenyl)ethanamine] | ≤ 10 µM
25 | COc1ccc(CN[C@H](C)c2ccccc2)cc1-c1ccoc1 [(1R)-N-((3-(3-furanyl)-4-(methyloxy)phenyl)methyl)-1-phenylethanamine] | ≤ 10 µM
26 | COc1cccc([C@@H](C)NCc2cccc(-c3nc(C)no3)c2)c1 [(1R)-N-((3-(3-methyl-1,2,4-oxadiazol-5-yl)phenyl)methyl)-1-(3-(methyloxy)phenyl)ethanamine] | ≤ 10 µM
27 | CCOc1ccc(-c2cc(CN[C@H](C)c3cccc4ccccc34)ccc2OC)cn1 [(1R)-N-((3-(6-(ethyloxy)-3-pyridinyl)-4-(methyloxy)phenyl)methyl)-1-(1-naphthalenyl)ethanamine] | ≤ 10 µM
28 | CCOc1ccc(-c2cc(CN[C@H](C)c3ccccc3)ccc2OC)cn1 [(1R)-N-((3-(6-(ethyloxy)-3-pyridinyl)-4-(methyloxy)phenyl)methyl)-1-phenylethanamine] | ≤ 10 µM
29 | COc1ccc(-c2cccc(CN[C@H](C)c3cccc4ccccc34)c2)nn1 [(1R)-N-((3-(6-(methyloxy)-3-pyridazinyl)phenyl)methyl)-1-(1-naphthalenyl)ethanamine] | ≤ 10 µM
30 | COc1ccc(-c2cccc(CN[C@H](C)c3ccccc3)c2)nn1 [(1R)-N-((3-(6-(methyloxy)-3-pyridazinyl)phenyl)methyl)-1-phenylethanamine] | ≤ 10 µM
31 | Cc1ccc(-c2cccc(CN[C@H](C)c3cccc4ccccc34)c2)cn1 [(1R)-N-((3-(6-methyl-3-pyridinyl)phenyl)methyl)-1-(1-naphthalenyl)ethanamine] | ≤ 10 µM
32 | Cc1ccc(-c2cccc(CN[C@H](C)c3ccc4ccccc4c3)c2)cn1 [(1R)-N-((3-(6-methyl-3-pyridinyl)phenyl)methyl)-1-(2-naphthalenyl)ethanamine] | ≤ 10 µM
33 | Cc1ccc(-c2cccc(CN[C@H](C)c3ccccc3)c2)cn1 [(1R)-N-((3-(6-methyl-3-pyridinyl)phenyl)methyl)-1-phenylethanamine] | ≤ 10 µM
34 | COc1ccc(CN[C@H](C)c2cccc3ccccc23)cc1-c1ccc2nccn2c1 [(1R)-N-((3-imidazo[1,2-a]pyridin-6-yl-4-(methyloxy)phenyl)methyl)-1-(1-naphthalenyl)ethanamine] | ≤ 10 µM
35 | COc1ccc(CN[C@H](C)c2ccccc2)cc1-c1ccc2nccn2c1 [(1R)-N-((3-imidazo[1,2-a]pyridin-6-yl-4-(methyloxy)phenyl)methyl)-1-phenylethanamine] | ≤ 10 µM
36 | Cc1ccc([C@@H](C)NCc2cccc(-c3ccc(C)c(C)c3)c2)cc1 [(1R)-N-((3′,4′-dimethyl-1,1′-biphenyl-3-yl)methyl)-1-(4-methylphenyl)ethanamine] | ≤ 10 µM
